# Assay results as given in patent publication US20120245137A1 (Zalicus Pharmaceuticals Ltd., priority 2009, published 2012).
# Read-outs that look alike come from different tables or passages of the source.
# Key:
# Assay type in all cases: cell-based
# [1] = target: T-type calcium channel (Homo sapiens, UniProt O95180); test: T-type channel blocking, FLIPR data (Table 6); settings: for CAv3.2 IC50 Ratio closed/inact.: CAv3.2, ratio closed/inactivated IC50
# Text: (§1) Another method, high-throughput spectrophotometric assay, utilizes loading of the cell lines with a fluorescent dye sensitive to intracellular calcium concentration and subsequent examination of the effects of compounds on the ability of depolarization by potassium chloride or other means to alter intracellular calcium levels.
# [2] = target: T-type calcium channel (Homo sapiens, UniProt O43497); test: T-type channel blocking, FLIPR data (Table 6); settings: CAv3.1
# Text: as §1
# [3] = target: Human Cav 2.2 channels (Homo sapiens, UniProt Q00975); test: Fluorescent assay for CaV2.2 channels using potassium depolarization (VIPR/FLIPR); settings: FLIPR data; for CAv2.2 IC50 Ratio closed/inact.: ratio closed/inactivated IC50
# How it was run: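 Fluo-4 calcium fluorescence (480/535 nm) was recorded on VIPR or FLIPR after depolarization to 70 mM final potassium. Before this, cells were preincubated 30 min at 25 °C with compound in 4–30 mM potassium, so that state-dependent block could be assessed; the cells were HEK293 coexpressing Cav2.2, α2δ, β and Kir2.3.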
# [4] = target: CAv1.2 (Homo sapiens, UniProt Q13936); test: FLIPR data, CAv1.2 channel blocking (Table 6); settings: for CAv1.2 IC50 Ratio closed/inact.: ratio closed/inactivated IC50
# [5] = CAv3.2, closed state, read-out: CAv3.2 IC50 Closed
# [6] = CAv3.2, inactivated state, read-out: CAv3.2 IC50 Inact.
# [7] = closed state, read-out: CAv2.2 IC50 Closed
# [8] = inactivated state, read-out: CAv2.2 IC50 Inact.
# [9] = closed state, read-out: CAv1.2 IC50 Closed
# [10] = inactivated state, read-out: CAv1.2 IC50 Inact.
# T-type calcium channel (Homo sapiens, UniProt O95180), sequence (O95180 whole entry): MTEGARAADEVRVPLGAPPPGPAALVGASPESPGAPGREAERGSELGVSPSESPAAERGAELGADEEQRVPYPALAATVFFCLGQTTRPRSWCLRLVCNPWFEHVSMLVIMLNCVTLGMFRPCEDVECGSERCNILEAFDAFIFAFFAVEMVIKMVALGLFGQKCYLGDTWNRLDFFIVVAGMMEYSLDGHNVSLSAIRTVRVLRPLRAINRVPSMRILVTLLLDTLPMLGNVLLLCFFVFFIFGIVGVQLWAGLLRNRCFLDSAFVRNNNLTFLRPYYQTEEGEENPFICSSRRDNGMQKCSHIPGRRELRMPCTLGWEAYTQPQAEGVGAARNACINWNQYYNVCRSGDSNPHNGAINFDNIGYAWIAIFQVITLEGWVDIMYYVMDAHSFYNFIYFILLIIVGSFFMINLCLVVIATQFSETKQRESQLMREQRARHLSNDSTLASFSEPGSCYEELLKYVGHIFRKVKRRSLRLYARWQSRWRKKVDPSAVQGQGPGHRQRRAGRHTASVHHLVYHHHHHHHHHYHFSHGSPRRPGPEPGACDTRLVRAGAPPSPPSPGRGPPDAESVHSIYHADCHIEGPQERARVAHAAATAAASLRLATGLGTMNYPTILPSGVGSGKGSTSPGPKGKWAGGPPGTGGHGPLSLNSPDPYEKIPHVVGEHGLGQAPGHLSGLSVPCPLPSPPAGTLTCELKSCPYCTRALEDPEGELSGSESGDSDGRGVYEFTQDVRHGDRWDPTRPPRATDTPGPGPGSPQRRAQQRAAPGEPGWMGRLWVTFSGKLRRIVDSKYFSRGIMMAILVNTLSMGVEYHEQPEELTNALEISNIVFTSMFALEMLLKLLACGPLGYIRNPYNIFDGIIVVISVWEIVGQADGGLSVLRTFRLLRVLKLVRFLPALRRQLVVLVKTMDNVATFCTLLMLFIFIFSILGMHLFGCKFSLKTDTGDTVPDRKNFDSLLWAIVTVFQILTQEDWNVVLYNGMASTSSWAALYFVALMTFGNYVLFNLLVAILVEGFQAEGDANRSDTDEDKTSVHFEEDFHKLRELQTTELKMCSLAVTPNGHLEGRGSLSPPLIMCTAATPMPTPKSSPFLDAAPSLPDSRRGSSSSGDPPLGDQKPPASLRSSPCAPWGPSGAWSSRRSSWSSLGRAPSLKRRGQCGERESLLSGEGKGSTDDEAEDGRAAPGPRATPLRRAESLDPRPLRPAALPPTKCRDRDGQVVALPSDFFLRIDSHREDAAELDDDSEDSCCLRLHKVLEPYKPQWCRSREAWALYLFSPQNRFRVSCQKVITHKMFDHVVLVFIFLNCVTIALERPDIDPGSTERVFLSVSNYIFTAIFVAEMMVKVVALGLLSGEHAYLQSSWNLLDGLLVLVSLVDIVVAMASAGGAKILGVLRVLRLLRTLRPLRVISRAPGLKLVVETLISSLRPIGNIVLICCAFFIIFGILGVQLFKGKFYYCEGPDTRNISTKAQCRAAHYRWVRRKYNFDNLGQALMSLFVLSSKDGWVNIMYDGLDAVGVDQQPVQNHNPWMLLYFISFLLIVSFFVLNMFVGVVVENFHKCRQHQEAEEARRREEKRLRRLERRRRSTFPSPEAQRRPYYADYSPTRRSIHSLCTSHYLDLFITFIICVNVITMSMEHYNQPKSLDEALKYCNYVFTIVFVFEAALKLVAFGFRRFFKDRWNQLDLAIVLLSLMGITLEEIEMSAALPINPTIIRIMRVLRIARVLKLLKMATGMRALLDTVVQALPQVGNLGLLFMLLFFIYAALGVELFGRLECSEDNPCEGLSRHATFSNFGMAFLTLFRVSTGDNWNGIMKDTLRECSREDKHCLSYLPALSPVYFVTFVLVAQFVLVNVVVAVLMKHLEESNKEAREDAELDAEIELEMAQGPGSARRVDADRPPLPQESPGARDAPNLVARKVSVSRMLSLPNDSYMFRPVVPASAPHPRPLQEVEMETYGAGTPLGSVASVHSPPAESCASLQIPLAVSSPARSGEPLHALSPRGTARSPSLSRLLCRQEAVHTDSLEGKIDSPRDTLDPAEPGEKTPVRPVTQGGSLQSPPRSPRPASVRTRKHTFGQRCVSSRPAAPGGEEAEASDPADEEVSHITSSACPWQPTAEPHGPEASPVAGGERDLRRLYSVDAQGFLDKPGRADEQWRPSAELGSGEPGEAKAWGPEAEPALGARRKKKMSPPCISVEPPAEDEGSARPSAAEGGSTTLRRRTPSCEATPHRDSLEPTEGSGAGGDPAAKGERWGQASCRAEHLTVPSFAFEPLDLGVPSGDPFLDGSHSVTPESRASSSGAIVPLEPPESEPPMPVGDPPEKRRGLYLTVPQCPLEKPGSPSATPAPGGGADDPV
# T-type calcium channel (Homo sapiens, UniProt O43497), sequence (O43497 whole entry): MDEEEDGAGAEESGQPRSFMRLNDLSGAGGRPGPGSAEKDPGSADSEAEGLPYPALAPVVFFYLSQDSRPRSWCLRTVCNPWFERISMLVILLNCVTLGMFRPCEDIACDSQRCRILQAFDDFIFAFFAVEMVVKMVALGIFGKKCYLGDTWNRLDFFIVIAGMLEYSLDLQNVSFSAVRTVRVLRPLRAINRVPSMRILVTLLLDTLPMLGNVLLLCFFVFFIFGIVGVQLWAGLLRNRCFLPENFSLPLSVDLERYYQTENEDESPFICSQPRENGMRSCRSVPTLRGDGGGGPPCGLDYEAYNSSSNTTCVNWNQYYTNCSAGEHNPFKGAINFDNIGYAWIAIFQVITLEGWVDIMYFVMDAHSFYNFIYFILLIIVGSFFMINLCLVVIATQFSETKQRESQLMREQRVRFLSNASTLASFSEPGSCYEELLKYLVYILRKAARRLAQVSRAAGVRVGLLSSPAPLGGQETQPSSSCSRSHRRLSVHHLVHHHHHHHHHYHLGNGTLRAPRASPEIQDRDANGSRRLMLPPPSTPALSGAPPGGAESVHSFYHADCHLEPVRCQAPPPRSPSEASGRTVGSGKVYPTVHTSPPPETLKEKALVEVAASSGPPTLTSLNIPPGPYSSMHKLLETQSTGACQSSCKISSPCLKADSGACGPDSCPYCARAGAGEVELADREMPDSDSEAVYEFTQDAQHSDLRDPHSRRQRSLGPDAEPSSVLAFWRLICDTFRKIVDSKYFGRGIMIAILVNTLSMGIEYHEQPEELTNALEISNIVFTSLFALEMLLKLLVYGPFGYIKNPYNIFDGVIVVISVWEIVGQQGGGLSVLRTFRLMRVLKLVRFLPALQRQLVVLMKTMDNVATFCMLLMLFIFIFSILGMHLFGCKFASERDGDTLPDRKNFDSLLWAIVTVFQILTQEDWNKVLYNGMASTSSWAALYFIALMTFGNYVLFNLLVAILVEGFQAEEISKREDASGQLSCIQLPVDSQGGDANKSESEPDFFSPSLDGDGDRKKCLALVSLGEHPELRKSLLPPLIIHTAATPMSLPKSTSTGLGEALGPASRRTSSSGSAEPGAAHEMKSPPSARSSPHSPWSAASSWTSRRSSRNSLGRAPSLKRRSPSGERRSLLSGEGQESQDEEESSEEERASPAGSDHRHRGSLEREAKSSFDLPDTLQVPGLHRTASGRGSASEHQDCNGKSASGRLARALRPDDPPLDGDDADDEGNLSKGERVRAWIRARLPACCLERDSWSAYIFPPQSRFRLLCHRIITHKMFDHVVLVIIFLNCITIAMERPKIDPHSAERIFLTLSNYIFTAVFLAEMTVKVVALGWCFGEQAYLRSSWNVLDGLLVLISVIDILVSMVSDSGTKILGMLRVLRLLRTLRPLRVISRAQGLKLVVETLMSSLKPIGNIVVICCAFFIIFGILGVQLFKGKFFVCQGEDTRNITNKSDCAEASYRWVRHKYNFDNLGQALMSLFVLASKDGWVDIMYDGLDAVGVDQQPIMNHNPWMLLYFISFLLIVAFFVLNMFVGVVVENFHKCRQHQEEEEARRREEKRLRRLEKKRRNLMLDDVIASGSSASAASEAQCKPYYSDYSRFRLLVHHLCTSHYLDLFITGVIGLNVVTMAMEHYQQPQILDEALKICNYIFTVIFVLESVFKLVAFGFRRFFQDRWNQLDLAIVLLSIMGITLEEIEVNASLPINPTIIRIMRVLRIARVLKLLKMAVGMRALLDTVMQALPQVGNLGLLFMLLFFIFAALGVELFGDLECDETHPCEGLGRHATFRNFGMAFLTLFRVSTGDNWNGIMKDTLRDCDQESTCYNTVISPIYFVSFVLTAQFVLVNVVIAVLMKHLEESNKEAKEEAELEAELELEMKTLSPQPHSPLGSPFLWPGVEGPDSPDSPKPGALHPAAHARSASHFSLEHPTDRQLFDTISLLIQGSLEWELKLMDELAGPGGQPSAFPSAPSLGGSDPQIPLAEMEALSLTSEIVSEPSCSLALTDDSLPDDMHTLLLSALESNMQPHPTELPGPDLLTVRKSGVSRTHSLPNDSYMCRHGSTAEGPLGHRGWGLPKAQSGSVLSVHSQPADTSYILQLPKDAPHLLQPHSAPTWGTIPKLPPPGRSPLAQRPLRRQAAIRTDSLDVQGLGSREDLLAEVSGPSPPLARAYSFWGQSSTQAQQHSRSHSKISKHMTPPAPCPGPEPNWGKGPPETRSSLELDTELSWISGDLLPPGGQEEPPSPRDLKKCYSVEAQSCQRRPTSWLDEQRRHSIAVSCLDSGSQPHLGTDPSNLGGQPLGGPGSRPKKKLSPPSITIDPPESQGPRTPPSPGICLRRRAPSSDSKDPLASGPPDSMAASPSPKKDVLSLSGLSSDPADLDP
Compound,"IC50 [1, 5] [µM]","IC50 [1, 6] [µM]",CAv3.2 IC50 Ratio closed/inact. [1],IC50 [2] [µM],"IC50 [3, 7] [µM]","IC50 [3, 8] [µM]",CAv2.2 IC50 Ratio closed/inact. [3],"IC50 [4, 9] [µM]","IC50 [4, 10] [µM]",CAv1.2 IC50 Ratio closed/inact. [4]
CC(C)([C@H]1C[C@@H](NC(=O)c2ccc(Cl)cc2S(C)(=O)=O)C1)S(=O)(=O)c1cccc(C(F)(F)F)c1 [Compound 580],≥ 10,10,1,≥ 10,10,0.26,38.5,≥ 10,≥ 10,
CC(C)([C@H]1C[C@@H](NC(=O)c2ccc(C(F)(F)F)cc2)C1)S(=O)(=O)c1cccc(C(F)(F)F)c1 [Compound 581],3.07,0.66,4.7,4.84,2.43,0.13,18.7,3.87,1.48,2.6
CC(C)([C@H]1C[C@@H](NC(=O)c2ccc(OCC(F)(F)F)nc2)C1)S(=O)(=O)c1cccc(C(F)(F)F)c1 [Compound 582],4.35,1.31,3.3,≥ 10,2.88,0.19,15.2,5.77,2.06,2.8
CC(C)S(=O)(=O)c1cc(C(F)(F)F)cnc1C(=O)N[C@H]1C[C@@H](C(C)(C)S(=O)(=O)c2cc(F)cc(C(F)(F)F)c2)C1 [Compound 586],≥ 10,10,1,≥ 10,10,0.48,20.8,≥ 10,9.37,1.1
CC(C)([C@H]1C[C@@H](NC(=O)c2cc(C(F)(F)F)n[nH]2)C1)S(=O)(=O)c1cc(F)cc(C(F)(F)F)c1 [Compound 587],6.56,3.6,1.8,≥ 10,5.55,0.72,7.7,≥ 10,4.85,2.1
CC(C)([C@H]1C[C@@H](NC(=O)c2ccc(Cl)c(F)c2)C1)S(=O)(=O)c1cc(F)cc(C(F)(F)F)c1 [Compound 589],4.14,1.07,3.9,4.03,2.37,0.27,8.8,4.91,1.8,2.7
CC(C)([C@H]1C[C@@H](NC(=O)c2ccc(F)c(Cl)c2)C1)S(=O)(=O)c1cc(F)cc(C(F)(F)F)c1 [Compound 590],4.3,1.37,3.1,6.85,2.83,0.34,8.3,5.33,1.7,3.1
CC(C)S(=O)(=O)c1cc(C(F)(F)F)cnc1C(=O)N[C@H]1C[C@H](C(C)(C)S(=O)(=O)c2cc(F)cc(C(F)(F)F)c2)C1 [Compound 593],≥ 10,10.4,1,≥ 10,10,0.16,62.5,≥ 10,7.86,1.3
CC(C)([C@H]1C[C@H](NC(=O)c2ccnc(C(F)(F)F)n2)C1)S(=O)(=O)c1cc(F)cc(C(F)(F)F)c1 [Compound 595],≥ 10,9.83,1,≥ 10,3.63,0.21,17.3,≥ 10,≥ 10,
CC(C)([C@H]1C[C@H](NC(=O)c2ccc(Cl)c(F)c2)C1)S(=O)(=O)c1cc(F)cc(C(F)(F)F)c1 [Compound 596],3.13,1.11,2.8,9.74,1.73,0.26,6.7,3.63,1.43,2.5
CC(C)([C@H]1C[C@H](NC(=O)c2ccc(F)c(Cl)c2)C1)S(=O)(=O)c1cc(F)cc(C(F)(F)F)c1 [Compound 597],3.12,1.21,2.6,3.8,1.43,0.17,8.4,3.7,0.86,4.3
CC(C)([C@H]1C[C@@H](NS(=O)(=O)c2ccc(C(F)(F)F)cc2)C1)S(=O)(=O)c1cc(F)cc(C(F)(F)F)c1 [Compound 598],≥ 10,4.56,2.2,7.56,5.74,0.7,8.2,9.38,2.83,3.3
CC(C)([C@H]1C[C@@H](NS(=O)(=O)c2ccc(F)c(Cl)c2)C1)S(=O)(=O)c1cc(F)cc(C(F)(F)F)c1 [Compound 599],≥ 10,4.4,2.3,5.59,6.14,1.03,6,8.85,3.05,2.9
CC(C)([C@H]1C[C@@H](NS(=O)(=O)c2ccc(Cl)c(F)c2)C1)S(=O)(=O)c1cc(F)cc(C(F)(F)F)c1 [Compound 600],≥ 10,5.08,2,3.57,5.25,0.82,6.4,6.93,2.22,3.1
CC(C)([C@H]1C[C@@H](NS(=O)(=O)c2ccc(F)c(C(F)(F)F)c2)C1)S(=O)(=O)c1cc(F)cc(C(F)(F)F)c1 [Compound 601],≥ 10,4.97,2,3.82,7.07,0.9,7.9,8.84,2.86,3.1
CC(C)([C@H]1C[C@@H](NS(=O)(=O)c2ccc(C(F)(F)F)nc2)C1)S(=O)(=O)c1cc(F)cc(C(F)(F)F)c1 [Compound 602],≥ 10,5.38,1.9,6.36,6.08,0.75,8.1,9.77,3.94,2.5
CC(C)([C@H]1C[C@@H](NS(=O)(=O)c2ccc(OC(F)(F)F)cc2)C1)S(=O)(=O)c1cc(F)cc(C(F)(F)F)c1 [Compound 603],≥ 10,6.46,1.5,5.48,4.17,0.61,6.8,6.92,2.12,3.3
CC(C)([C@H]1C[C@H](NS(=O)(=O)c2ccc(C(F)(F)F)cc2)C1)S(=O)(=O)c1cc(F)cc(C(F)(F)F)c1 [Compound 605],4.79,2.21,2.2,4.35,5.4,0.87,6.2,5.29,1.92,2.8
CC(C)([C@H]1C[C@H](NS(=O)(=O)c2ccc(F)c(Cl)c2)C1)S(=O)(=O)c1cc(F)cc(C(F)(F)F)c1 [Compound 606],8.53,3.57,2.4,4.17,2.51,0.92,2.7,5.65,2.76,2
CC(C)([C@H]1C[C@H](NS(=O)(=O)c2ccc(Cl)c(F)c2)C1)S(=O)(=O)c1cc(F)cc(C(F)(F)F)c1 [Compound 607],≥ 10,3.73,2.7,5.43,2.97,1.15,2.6,7.78,2.99,2.6
CC(C)([C@H]1C[C@H](NS(=O)(=O)c2ccc(F)c(C(F)(F)F)c2)C1)S(=O)(=O)c1cc(F)cc(C(F)(F)F)c1 [Compound 608],≥ 10,2.58,3.9,4.92,4.03,1.1,3.7,7.75,2.45,3.2
